The record followed here is patent US20100267796A1, “THERAPEUTIC AGENT FOR IRRITABLE BOWEL SYNDROME” (KYOWA HAKKO KOGYO CO., LTD., priority 2006, published 2010).

For test [1], the system named is adenosine uptake in HEK293 cells. The experiment in a line: Adenosine uptake inhibitory activity in HEK293 cells ([3H]adenosine uptake). In kind it is cell-based. The settings on record: Homo sapiens, 1 min, [3H]adenosine uptake relative to 100% of control, HEK293 cells. The protocol: A test was conducted according to the method of Leung et al. [Biochemical Pharmacology, Vol. 70, pp. 355-362 (2005)]. HEK293 cells (ATCC, Registration No. CRL-1537) were subcultured in a Dulbecco's modified Eagle's medium (manufactured by Invitrogen Corporation) containing 10% of fatal calf serum in a CO2 incubator using a poly-L-lysine-coated 10-cm dish (manufactured by Asahi Techno Glass Corporation). The cultured cells were seeded in a poly-L-lysine-coated 24-well plate (manufactured by Asahi Techno Glass Corporation) and cultured until the cells become confluent. […] After incubation at room temperature for 15 minutes, 0.2 mL of a Na^+-free buffer containing 100 nmol/L of [^3H] adenosine (manufactured by GE Health Care Bioscience Corporation) and each compound at each of 50 nmol/L and 500 nmol/L was added to each well. After 1 minute, the reaction solution was removed with an aspirator, and the wells were washed twice with 0.5 mL of ice-cooled PBS (phosphate-buffered saline). Then, 0.5 mL of PBS containing 5% Triton X-100 was added to each well, and the cells were scraped with a scraper. The solution in each well was homogenized by passing through a 20 G injection needle ten times and transferred to a scintillation vial containing 4 mL of clear sol (manufactured by Nacalai Tesque Inc.). Further, the wells were washed with 0.5 mL of PBS containing 5% Triton X-100, and the washing solution was added to the same vial. After sufficient agitation, radioactivity was measured using a liquid scintillation counter (Aloka Co., Ltd., LSC-3500). A relative value to 100% of an uptake of a control was indicated by percentage.

For test [2], the system named is loperamide-induced constipation. Nature of the test: Activity on loperamide-induced constipation. In kind it is in vivo, male SD rats. The conditions noted are these: doses of 0.01, 0.1 and 1 mg/kg p.o. 1 hour before loperamide 5 mg/kg; rats, n=15; vs. control group. As for the experimental part:
The therapeutic effect of the compounds of the present application on constipation was evaluated by the method described below. Compound 1-1 was used as a test compound.
To Compound 1-1, 0.5 w/v % methyl cellulose 400 (MC, manufactured by Wako Pure Chemical Industries, Ltd.) was added, followed by lightly mixing with a mixer (TTM-1, Shibata Scientific Technology Ltd.). Then, the resultant mixture was subjected to ultrasonic treatment (1 minute) with an ultrasonic cleaner (Sine Sonic UA100, Hitachi Kokusai Denki Engineering Co., Ltd.), and suspended by re-mixing with the mixer to prepare a suspension at a concentration of 0.2 mg/mL. […]
A day before the test, the rat tails were numbered for identification and the body weights were measured. […] The collected stools were dried (100° C., 6 hours) with a dryer (SH42, Yamato Scientific Co., Ltd.), and the weight was measured with an electronic balance (AB54, Mettler-Toledo AG). […]
With respect to the fecal amount, a dry weight was used, and an amount of stools for 0 to 8 hours was used as a measurement parameter. The fecal pellets were collected in a tare (aluminum foil) whose weight was previously measured, and the weight was calculated by subtracting the weight of the tare from the weight including the tare weight. […]

Molecule `C[C@](O)(C(=O)Nc1cccc2c1C(=O)c1sccc1CS2(=O)=O)C(F)(F)F` [Compound 1-1] yielded an activity at 0.05 µM in test [1] (50 nmol/L compound, n=2) of 68%. The molecule also returned an activity at 0.5 µM in test [1] (500 nmol/L compound) of 29%. In test [2], the “fecal amount (dry weight) 0 to 8 hours after the administration of loperamide” value is reported as “significantly inhibits a decrease in fecal amount”.
